Measured values from patent publication US20250003877A1, “Silyl Bridged Dyes” (priority 2021, published 2025).
Where two headings read alike, the source gives them in different places.

Conditions: for ϕ (quantum yield): pH 7.4
[1] = spirolactone dyes, table title says PBS, text (b560-b564) says maximal ε when ring-opened in EtOH/0.1% TFA

Structure (SMILES)	Em (nm) (PBS)	Ex (nm) (PBS)	ϕ (quantum yield) (PBS)	ε (M^−1 cm^−1) [1]	Brightness (ϕ × ε) (PBS)	ε (M^−1 cm^−1) (PBS)	red-shift compared to dimethylsilyl counterpart (vs 001 (for 007) or vs 020 (for 021, 022), excitation and emission)	quantum yield (pH 3 acetate buffer)
CN(C)c1ccc2c(c1)[Si@](C)(CCCSCC(=O)O)c1cc(N(C)C)ccc1[C@]21OC(=O)c2ccccc21 [Compound 063, 2-((3-((5s,10s)-3,7-Bis(dimethylamino)-5-methyl-3′-oxo-3′H,5H-spiro[dibenzo[b,e]siline-10,1′-isobenzofuran]-5-yl)propyl)thio)acetic acid]	665	645	0.45	180,600 M^−1 cm^−1	–	–	–	–
COc1cccc(OC)c1C1=C2C=CC(=[N+](C)C)C=C2[Si](C)(CCCCl)c2cc(N(C)C)ccc21 (centres unmarked) [Compound 030, N-(5-(3-Chloropropyl)-10-(2,6-dimethoxyphenyl)-7-(dimethylamino)-5-methyldibenzo[b,e]silin-3(5H)-ylidene)-N-methylmethanaminium]	673	655	0.38	–	76,000	200,000 M^−1 cm^−1	–	–
Cc1ccccc1C1=c2cc3c(cc2[Si](c2ccccc2)(c2ccccc2)c2cc4c(cc21)CCCN4C)=[N+](C)CCC3 [Compound 018, 1,11-Dimethyl-13,13-diphenyl-6-(o-tolyl)-2,3,4,8,9,10,11,13-octahydrosilino[3,2-g:5,6-g′]diquinolin-1-ium]	710	690	0.28	–	41,524	148,300 M^−1 cm^−1	–	–
Cc1ccccc1C1=C2C=CC(=[N+](C)C)C=C2[Si](C)(CCC(F)(F)F)c2cc(N(C)C)ccc21 (centres unmarked) [Compound 010, N-(7-(Dimethylamino)-5-methyl-10-(o-tolyl)-5-(3,3,3-trifluoropropyl)dibenzo[b,e]silin-3(5H)-ylidene)-N-methylmethanaminium]	666	650	0.35	–	39,854	112,900 M^−1 cm^−1	–	–
Cc1ccccc1C1=C2C=CC(=[N+](C)C)C=C2[Si](c2ccccc2)(c2ccccc2)c2cc(N(C)C)ccc21 [Compound 007, N-(7-(Dimethylamino)-5,5-diphenyl-10-(o-tolyl)dibenzo[b,e]silin-3(5H)-ylidene)-N-methylmethanaminium]	677	663	0.35	–	41,952	120,900 M^−1 cm^−1	approximately 15 nm	–
Cc1ccccc1C1=c2cc3c(cc2[Si](C)(CCCCl)c2cc4c(cc21)CCN4C)=[N+](C)CC3 (centres unmarked) [Compound 023, 11-(3-Chloropropyl)-1,9,11-trimethyl-5-(o-tolyl)-2,3,7,8,9,11-hexahydrosilino[3,2-f:5,6-f]diindol-1-ium]	717	693	0.17	–	21,947	129,100 M^−1 cm^−1	–	–
CN(C)c1ccc2c(c1)[Si@](C)(CCCN=[N+]=[N-])c1cc(N(C)C)ccc1[C@@]21OC(=O)c2ccccc21 [Compound 054, (5r,10r)-5-(3-Azidopropyl)-3,7-bis(dimethylamino)-5-methyl-3′H,5H-spiro[dibenzo[b,e]siline-10,1′-isobenzofuran]-3′-one]	665	645	0.44	218,400 M^−1 cm^−1	–	–	–	–
Cc1ccccc1C1=C2C=CC(=[N+](C)C)C=C2[Si](C)(c2cccc(N(C)C)c2)c2cc(N(C)C)ccc21 (centres unmarked) [Compound 008, N-(7-(Dimethylamino)-5-(3-(dimethylamino)phenyl)-5-methyl-10-(o-tolyl)dibenzo[b,e]silin-3(5H)-ylidene)-N-methylmethanaminium]	668	651	0.02	–	3700	154,200 M^−1 cm^−1	–	0.31
CCOC(=O)CSCCC[Si@]1(C)c2cc(N(C)C)ccc2[C@@]2(OC(=O)c3ccccc32)c2ccc(N(C)C)cc21 [Compound 043, Ethyl 2-((3-((5r,10r)-3,7-bis(dimethylamino)-5-methyl-3′-oxo-3′H,5H-spiro[dibenzo[b,e]siline-10,1′-isobenzofuran]-5-yl)propyl)thio)acetate]	665	646	0.45	150,700 M^−1 cm^−1	–	–	–	–
CN(C)c1ccc2c(c1)[Si@](C)(CCCI)c1cc(N(C)C)ccc1[C@@]21OC(=O)c2ccccc21 [Compound 048, (5r,10r)-3,7-Bis(dimethylamino)-5-(3-iodopropyl)-5-methyl-3′H,5H-spiro[dibenzo[b,e]siline-10,1′-isobenzofuran]-3′-one]	665	645	0.45	144,000 M^−1 cm^−1	–	–	–	–
Cc1ccccc1C1=C2C=CC(=[N+](C)C)C=C2[Si](C)([C@H]2CC3C=CC2C3)c2cc(N(C)C)ccc21 (stereo partly drawn) [Compound 013, N-(5-((2S)-Bicyclo[2.2.1]hept-5-en-2-yl)-7-(dimethylamino)-5-methyl-10-(o-tolyl)dibenzo[b,e]silin-3(5H)-ylidene)-N-methylmethanaminium]	666	649	0.38	–	60,800	160,000 M^−1 cm^−1	–	–
CCOC(=O)CSCCC[Si@]1(C)c2cc(N(C)C)ccc2[C@]2(OC(=O)c3ccccc32)c2ccc(N(C)C)cc21 [Compound 042, Ethyl 2-((3-((5s,10s)-3,7-bis(dimethylamino)-5-methyl-3′-oxo-3′H,5H-spiro[dibenzo[b,e]siline-10,1′-isobenzofuran]-5-yl)propyl)thio)acetate]	665	645	0.45	145,800 M^−1 cm^−1	–	–	–	–
C=C[Si]1(C=C)C2=CC(=[N+]3CCC3)C=CC2=C(c2ccccc2C)c2ccc(N3CCC3)cc21 [Compound 026, 1-(7-(Azetidin-1-yl)-10-(o-tolyl)-5,5-divinyldibenzo[b,e]silin-3(5H)-ylidene)azetidin-1-ium]	673	658	0.44	–	48,268	109,700 M^−1 cm^−1	–	–
CN(C)c1ccc2c(c1)[Si@](C)(CCCN=[N+]=[N-])c1cc(N(C)C)ccc1[C@]21OC(=O)c2ccccc21 [Compound 053, (5s,10s)-5-(3-Azidopropyl)-3,7-bis(dimethylamino)-5-methyl-3′H,5H-spiro[dibenzo[b,e]siline-10,1′-isobenzofuran]-3′-one]	666	645	0.43	206,700 M^−1 cm^−1	–	–	–	–
Cc1ccccc1C1=C2C=CC(=[N+](C)C)C=C2[Si]2(CCCCC2)c2cc(N(C)C)ccc21 [Compound 014, N-(7-(Dimethylamino)-10-(o-tolyl)-3H-spiro[dibenzo[b,e]siline-5,1′-silinan]-3-ylidene)-N-methylmethanaminium]	666	650	0.33	–	56,610	170,000 M^−1 cm^−1	–	–
